Some test systems named below: HOP-92 NSCLC; KM12 colon; NCI-H23 lung; NCI/ADR-RES ovarian; OVCAR-4 ovarian; SF-268 CNS; SK-MEL-28 melanoma; SN12C renal; UO-31 renal; BT-549 breast.
Holding throughout (assay): inhibition of tumour cell growth, NCI panel, 48 h

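Cultured in 96-well plates, cells were exposed to test compound for 48 hours across five concentrations. At the GI50, growth is halved. TGI marks complete inhibition of growth.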

In the case of `N#Cc1ccc(/C=N/NC(=O)CSCC(=O)N/N=C/c2ccc(C#N)cc2)cc1`, the TGI in the assay with HOP-92 NSCLC, in the assay with KM12 colon, in the assay on NCI-H23 lung, in the assay with NCI/ADR-RES ovarian, with OVCAR-4 ovarian and with SF-268 CNS was greater than 100 µM throughout. The TGI in the assay with SK-MEL-28 melanoma, with SN12C renal and in the assay on UO-31 renal was greater than 100 µM throughout.

Turning to `COc1ccc(C[C@H]2NC(=O)/C=C/C[C@@H]([C@H](C)[C@H]3O[C@@H]3c3ccccc3)OC(=O)[C@H](CC(C)C)OC(=O)[C@H](C)CNC2=O)cc1`, the TGI with KM12 colon was greater than 0.0001 µM; with NCI-H23 lung, greater than 7.34e-05 µM; in the assay with NCI/ADR-RES ovarian it was greater than 0.0001 µM; in the assay on OVCAR-4 ovarian, greater than 0.0001 µM; in the assay with SF-268 CNS, greater than 0.0001 µM; in the assay on SK-MEL-28 melanoma it was greater than 0.0001 µM. Further, the TGI in the assay with SN12C renal and in the assay on UO-31 renal was greater than 0.0001 µM throughout.

Consider `Fc1ccc(C2NC(=S)NC3=C2CCOc2c3ccc3ccccc23)cc1` (centres undefined), for which the TGI in the assay with BT-549 breast was greater than 100 µM; in the assay with HOP-92 NSCLC, greater than 100 µM; in the assay on KM12 colon it was greater than 100 µM; in the assay with NCI-H23 lung it was greater than 100 µM; in the assay on NCI/ADR-RES ovarian it was 76.2 µM; in the assay with OVCAR-4 ovarian, greater than 100 µM. In addition, the TGI in the assay on SF-268 CNS, in the assay with SN12C renal and with UO-31 renal was greater than 100 µM throughout.

`CC(=O)N1CC(C)(C)c2c1cc(C)c(O)c2C`: the TGI with KM12 colon, with NCI-H23 lung, in the assay on NCI/ADR-RES ovarian, in the assay on OVCAR-4 ovarian, with SF-268 CNS and with SK-MEL-28 melanoma was greater than 100 µM each time. The TGI with SN12C renal and with UO-31 renal was greater than 100 µM in each case.

Take `O=c1[nH]c2nccnc2c2c([N+](=O)[O-])cccc12`: the TGI in the assay with BT-549 breast, with KM12 colon, in the assay on NCI-H23 lung, in the assay on NCI/ADR-RES ovarian, in the assay on OVCAR-4 ovarian and in the assay with SF-268 CNS was greater than 100 µM each time. The TGI in the assay with SK-MEL-28 melanoma, in the assay on SN12C renal and with UO-31 renal was greater than 100 µM in each case.

With `O=C(Nc1ccc(-n2cc(-c3ccncc3)c(-c3ccc(O)c(Cl)c3)n2)cc1)c1cc(Cl)cc(Cl)c1`, the GI50 is 1.28 µM in the assay on HOP-92 NSCLC; 1.47 µM in the assay on KM12 colon; 12.1 µM in the assay with NCI-H23 lung; 1.92 µM in the assay with NCI/ADR-RES ovarian; 2.56 µM in the assay on OVCAR-4 ovarian; 3.85 µM with SF-268 CNS. The GI50 in the assay on SK-MEL-28 melanoma was 3.19 µM; in the assay with SN12C renal, 2.44 µM; in the assay with UO-31 renal, 1.62 µM. Moreover, the TGI in the assay on HOP-92 NSCLC, with KM12 colon, in the assay on NCI-H23 lung, in the assay with NCI/ADR-RES ovarian, in the assay on OVCAR-4 ovarian and in the assay with SF-268 CNS was greater than 32.5 µM throughout. Moreover, the TGI in the assay on SK-MEL-28 melanoma, in the assay on SN12C renal and with UO-31 renal was greater than 32.5 µM in each case.

Turning to `CCOC(O)C(F)(F)F` (centres undefined), the TGI with HOP-92 NSCLC, with KM12 colon, in the assay with NCI-H23 lung, in the assay on NCI/ADR-RES ovarian, in the assay with SF-268 CNS and in the assay on SK-MEL-28 melanoma was greater than 100 µM in each case. The TGI in the assay on SN12C renal and in the assay with UO-31 renal was greater than 100 µM in each case.

With `N#CCN1CCCCCc2ccccc21`, the TGI in the assay on HOP-92 NSCLC, with KM12 colon, in the assay with NCI-H23 lung, with NCI/ADR-RES ovarian, in the assay with OVCAR-4 ovarian and with SF-268 CNS was greater than 100 µM in each case. Besides, the TGI in the assay on SK-MEL-28 melanoma, in the assay on SN12C renal and in the assay on UO-31 renal was greater than 100 µM each time.

Turning to `C\C=C/C=C/C=C/C(=O)O`, the TGI in the assay with KM12 colon, in the assay with NCI-H23 lung, with OVCAR-4 ovarian, with SF-268 CNS, in the assay on SK-MEL-28 melanoma and in the assay with SN12C renal was greater than 100 µM throughout. In the assay with UO-31 renal, this compound showed a TGI greater than 100 µM.

Turning to `Cc1c(C)c2c(c(N)c1C#N)C(=O)N(OS(=O)(=O)c1ccccc1)C2=O`, the TGI was 39.7 µM in the assay with BT-549 breast; 35.2 µM with HOP-92 NSCLC; greater than 100 µM in the assay with KM12 colon; 58.9 µM with NCI/ADR-RES ovarian; 41.3 µM in the assay on OVCAR-4 ovarian; greater than 100 µM in the assay with SF-268 CNS. Besides, the TGI in the assay on SK-MEL-28 melanoma is 67.3 µM; in the assay with SN12C renal it was 51.4 µM; with UO-31 renal, greater than 100 µM.

On to `CN1c2ccccc2C(=O)NC12CCN(Cc1ccccc1)CC2`, for which the TGI in the assay on HOP-92 NSCLC is 98.5 µM; in the assay on KM12 colon, greater than 100 µM; in the assay on NCI-H23 lung, greater than 100 µM; with NCI/ADR-RES ovarian, greater than 100 µM; in the assay on OVCAR-4 ovarian it was greater than 100 µM; with SF-268 CNS, greater than 100 µM. In addition, the TGI in the assay with SK-MEL-28 melanoma, in the assay with SN12C renal and in the assay with UO-31 renal was greater than 100 µM throughout.

As for `O=C(Nc1ccc(Cl)cc1)c1cccc([N+](=O)[O-])c1O`, the TGI in the assay with HOP-92 NSCLC was 4.72 µM; in the assay on KM12 colon, greater than 62.4 µM; in the assay with NCI-H23 lung, 6.55 µM; with OVCAR-4 ovarian, greater than 100 µM; with SF-268 CNS it was greater than 85 µM; with SK-MEL-28 melanoma, 39.6 µM. Also, the results for the TGI with SN12C renal and in the assay on UO-31 renal were greater than 74.7 µM and 6.56 µM, respectively.

Consider `O=C1c2n[nH]nc2C(=O)c2n[nH]nc21`, for which the TGI in the assay on HOP-92 NSCLC, with KM12 colon, in the assay with NCI-H23 lung, in the assay with NCI/ADR-RES ovarian, in the assay with OVCAR-4 ovarian and in the assay with SF-268 CNS was greater than 100 µM throughout. For the same compound, the TGI in the assay on SK-MEL-28 melanoma, in the assay with SN12C renal and in the assay on UO-31 renal was greater than 100 µM throughout.

With `N#Cc1nc(C(F)(F)F)oc1N`, the TGI in the assay with HOP-92 NSCLC, in the assay on KM12 colon, with NCI-H23 lung, in the assay on NCI/ADR-RES ovarian, in the assay on OVCAR-4 ovarian and in the assay with SF-268 CNS was greater than 100 µM each time. Also, the TGI in the assay on SK-MEL-28 melanoma, with SN12C renal and in the assay with UO-31 renal was greater than 100 µM throughout.

For the origin of these results see PubChem BioAssay (NCI).
